From PubChem BioAssay AID1963836 (Molecular Pharmacology Branch, DTP, NCI, 2024)

Test system: 857933-349-R-J2-PDC complex spheroid viability
Test: Anticancer human tumor 857933-349-R-J2-PDC patient-derived colon adenocarcinoma cell line growth inhibition [POLQ]
Conditions: for IC50: curve of first compound; for viability, T/C: stronger effect = lower value
In short: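 PDC + HUVEC + MSC complex spheroids; POLQ inhibitors ± partner drugs; top conc. at/near clinical Cmax, else 10 microM (SN-38 1 microM), half-log dilutions; 37 degrees C, 5% CO2.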

[1] = second compound 0.0316 µM, first compound 0.0316 µM
[2] = second compound 0.0316 µM, first compound 0.1 µM
[3] = second compound 0.0316 µM, first compound 0.316 µM
[4] = second compound 0.0316 µM, first compound 1 µM
[5] = second compound 0.0316 µM, first compound 3.16 µM
[6] = second compound 0.0316 µM, first compound 10 µM
[7] = second compound 0.1 µM, first compound 0.0316 µM
[8] = second compound 0.1 µM, first compound 0.1 µM
[9] = second compound 0.1 µM, first compound 0.316 µM
[10] = second compound 0.1 µM, first compound 1 µM
[11] = second compound 0.1 µM, first compound 3.16 µM
[12] = second compound 0.1 µM, first compound 10 µM
[13] = second compound 0.316 µM, first compound 0.0316 µM
[14] = second compound 0.316 µM, first compound 0.1 µM
[15] = second compound 0.316 µM, first compound 0.316 µM
[16] = second compound 0.316 µM, first compound 1 µM
[17] = second compound 0.316 µM, first compound 3.16 µM
[18] = second compound 0.316 µM, first compound 10 µM
[19] = second compound 1 µM, first compound 0.0316 µM
[20] = second compound 1 µM, first compound 0.1 µM
[21] = second compound 1 µM, first compound 0.316 µM
[22] = second compound 1 µM, first compound 1 µM
[23] = second compound 1 µM, first compound 3.16 µM
[24] = second compound 1 µM, first compound 10 µM
[25] = second compound 3.16 µM, first compound 0.0316 µM
[26] = second compound 3.16 µM, first compound 0.1 µM
[27] = second compound 3.16 µM, first compound 0.316 µM
[28] = second compound 3.16 µM, first compound 1 µM
[29] = second compound 3.16 µM, first compound 3.16 µM
[30] = second compound 3.16 µM, first compound 10 µM
[31] = second compound 10 µM, first compound 0.0316 µM
[32] = second compound 10 µM, first compound 0.1 µM
[33] = second compound 10 µM, first compound 0.316 µM
[34] = second compound 10 µM, first compound 1 µM
[35] = second compound 10 µM, first compound 3.16 µM
[36] = second compound 10 µM, first compound 10 µM
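Also: spheroids exposed to compounds for seven days before readout.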

CC(C)n1c(=O)n(C)c2cnc3cc(F)c(-c4ccc(OCCCN5CCCCC5)nc4)cc3c21 + COC1C(OC(N)=O)C(O)C(Oc2ccc3c(O)c(NC(=O)c4ccc(O)c(CC=C(C)C)c4)c(=O)oc3c2C)OC1(C)C
IC50 (second compound 0.0316 µM): > 10 µM
IC50 (second compound 0.1 µM): > 10 µM
IC50 (second compound 0.316 µM): > 10 µM
IC50 (second compound 1 µM): > 10 µM
IC50 (second compound 3.16 µM): > 10 µM
IC50 (second compound 10 µM): > 10 µM
viability, T/C [1]: 102%
viability, T/C [2]: 108%
viability, T/C [3]: 97.3%
viability, T/C [4]: 105%
viability, T/C [5]: 109%
viability, T/C [6]: 111%
viability, T/C [7]: 113%
viability, T/C [8]: 118%
viability, T/C [9]: 100%
viability, T/C [10]: 95%
viability, T/C [11]: 121%
viability, T/C [12]: 100%
viability, T/C [13]: 87.2%
viability, T/C [14]: 120%
viability, T/C [15]: 93.1%
viability, T/C [16]: 85.1%
viability, T/C [17]: 84.1%
viability, T/C [18]: 105%
viability, T/C [19]: 74.4%
viability, T/C [20]: 110%
viability, T/C [21]: 103%
viability, T/C [22]: 98.3%
viability, T/C [23]: 87.8%
viability, T/C [24]: 122%
viability, T/C [25]: 110%
viability, T/C [26]: 112%
viability, T/C [27]: 111%
viability, T/C [28]: 89%
viability, T/C [29]: 122%
viability, T/C [30]: 123%
viability, T/C [31]: 89.6%
viability, T/C [32]: 115%
viability, T/C [33]: 106%
viability, T/C [34]: 104%
viability, T/C [35]: 85.7%
viability, T/C [36]: 114%

CC1COCCN1c1cc(C2(S(C)(=N)=O)CC2)nc(-c2ccnc3[nH]ccc23)n1 (stereo not drawn) + COC1C(OC(N)=O)C(O)C(Oc2ccc3c(O)c(NC(=O)c4ccc(O)c(CC=C(C)C)c4)c(=O)oc3c2C)OC1(C)C
IC50 (second compound 0.0316 µM): 4.83 µM
IC50 (second compound 0.1 µM): 4.54 µM
IC50 (second compound 0.316 µM): 4.01 µM
IC50 (second compound 1 µM): 4.46 µM
IC50 (second compound 3.16 µM): 4.77 µM
IC50 (second compound 10 µM): 4.93 µM
viability, T/C [1]: 105%
viability, T/C [2]: 107%
viability, T/C [3]: 80.2%
viability, T/C [4]: 77.6%
viability, T/C [5]: 70.1%
viability, T/C [6]: 27.7%
viability, T/C [7]: 85.6%
viability, T/C [8]: 84.5%
viability, T/C [9]: 73.7%
viability, T/C [10]: 73.3%
viability, T/C [11]: 57.2%
viability, T/C [12]: 34.2%
viability, T/C [13]: 84.9%
viability, T/C [14]: 86.1%
viability, T/C [15]: 74.7%
viability, T/C [16]: 77.8%
viability, T/C [17]: 53.6%
viability, T/C [18]: 33%
viability, T/C [19]: 101%
viability, T/C [20]: 98.7%
viability, T/C [21]: 79.1%
viability, T/C [22]: 72.1%
viability, T/C [23]: 55.2%
viability, T/C [24]: 37.9%
viability, T/C [25]: 94.6%
viability, T/C [26]: 89.5%
viability, T/C [27]: 97%
viability, T/C [28]: 86.4%
viability, T/C [29]: 57.2%
viability, T/C [30]: 37.2%
viability, T/C [31]: 118%
viability, T/C [32]: 79.4%
viability, T/C [33]: 85.7%
viability, T/C [34]: 77.2%
viability, T/C [35]: 55.7%
viability, T/C [36]: 38.6%

COc1ccc([C@@H](O)c2cc(-c3ncnc4cc(N5CCOCC5)ccc34)c(F)cc2Cl)nn1 + COC1C(OC(N)=O)C(O)C(Oc2ccc3c(O)c(NC(=O)c4ccc(O)c(CC=C(C)C)c4)c(=O)oc3c2C)OC1(C)C
IC50 (second compound 0.0316 µM): > 10 µM
IC50 (second compound 0.1 µM): > 10 µM
IC50 (second compound 0.316 µM): > 10 µM
IC50 (second compound 1 µM): > 10 µM
IC50 (second compound 3.16 µM): > 10 µM
IC50 (second compound 10 µM): > 10 µM
viability, T/C [1]: 114%
viability, T/C [2]: 102%
viability, T/C [3]: 123%
viability, T/C [4]: 96.2%
viability, T/C [5]: 91.4%
viability, T/C [6]: 65.3%
viability, T/C [7]: 91.5%
viability, T/C [8]: 123%
viability, T/C [9]: 87%
viability, T/C [10]: 98.7%
viability, T/C [11]: 72%
viability, T/C [12]: 94.3%
viability, T/C [13]: 112%
viability, T/C [14]: 102%
viability, T/C [15]: 84.5%
viability, T/C [16]: 89.2%
viability, T/C [17]: 76.1%
viability, T/C [18]: 61.1%
viability, T/C [19]: 100%
viability, T/C [20]: 93.4%
viability, T/C [21]: 106%
viability, T/C [22]: 79.5%
viability, T/C [23]: 89.8%
viability, T/C [24]: 65.7%
viability, T/C [25]: 89.4%
viability, T/C [26]: 118%
viability, T/C [27]: 101%
viability, T/C [28]: 94.3%
viability, T/C [29]: 77.5%
viability, T/C [30]: 63.8%
viability, T/C [31]: 101%
viability, T/C [32]: 93.5%
viability, T/C [33]: 107%
viability, T/C [34]: 69.5%
viability, T/C [35]: 76.4%
viability, T/C [36]: 72.3%

Cn1ncnc1[C@H]1c2n[nH]c(=O)c3cc(F)cc(c23)N[C@@H]1c1ccc(F)cc1 + COC1C(OC(N)=O)C(O)C(Oc2ccc3c(O)c(NC(=O)c4ccc(O)c(CC=C(C)C)c4)c(=O)oc3c2C)OC1(C)C
IC50 (second compound 0.0316 µM): > 0.1 µM
IC50 (second compound 0.1 µM): > 0.1 µM
IC50 (second compound 0.316 µM): > 0.1 µM
IC50 (second compound 1 µM): > 0.1 µM
IC50 (second compound 3.16 µM): > 0.1 µM
IC50 (second compound 10 µM): > 0.1 µM
viability, T/C (second compound 0.0316 µM, first compound 0.000316 µM): 76.1%
viability, T/C (second compound 0.0316 µM, first compound 0.001 µM): 95.3%
viability, T/C (second compound 0.0316 µM, first compound 0.00316 µM): 77.6%
viability, T/C (second compound 0.0316 µM, first compound 0.01 µM): 92.6%
viability, T/C [1]: 90.5%
viability, T/C [2]: 100%
viability, T/C (second compound 0.1 µM, first compound 0.000316 µM): 106%
viability, T/C (second compound 0.1 µM, first compound 0.001 µM): 88.8%
viability, T/C (second compound 0.1 µM, first compound 0.00316 µM): 102%
viability, T/C (second compound 0.1 µM, first compound 0.01 µM): 96.2%
viability, T/C [7]: 96%
viability, T/C [8]: 84.7%
viability, T/C (second compound 0.316 µM, first compound 0.000316 µM): 89.2%
viability, T/C (second compound 0.316 µM, first compound 0.001 µM): 98.7%
viability, T/C (second compound 0.316 µM, first compound 0.00316 µM): 98.9%
viability, T/C (second compound 0.316 µM, first compound 0.01 µM): 77.8%
viability, T/C [13]: 93.1%
viability, T/C [14]: 88.4%
viability, T/C (second compound 1 µM, first compound 0.000316 µM): 75.9%
viability, T/C (second compound 1 µM, first compound 0.001 µM): 93.4%
viability, T/C (second compound 1 µM, first compound 0.00316 µM): 76.4%
viability, T/C (second compound 1 µM, first compound 0.01 µM): 77.8%
viability, T/C [19]: 97.7%
viability, T/C [20]: 107%
viability, T/C (second compound 3.16 µM, first compound 0.000316 µM): 78.6%
viability, T/C (second compound 3.16 µM, first compound 0.001 µM): 100%
viability, T/C (second compound 3.16 µM, first compound 0.00316 µM): 95.3%
viability, T/C (second compound 3.16 µM, first compound 0.01 µM): 92.8%
viability, T/C [25]: 87.8%
viability, T/C [26]: 77.7%
viability, T/C (second compound 10 µM, first compound 0.000316 µM): 60.5%
viability, T/C (second compound 10 µM, first compound 0.001 µM): 94.8%
viability, T/C (second compound 10 µM, first compound 0.00316 µM): 101%
viability, T/C (second compound 10 µM, first compound 0.01 µM): 76.2%
viability, T/C [31]: 94%
viability, T/C [32]: 103%
